Assay results reported in US20100166765A1, “BENZOQUINAZOLINE DERIVATIVES” (priority 2005, published 2010).

Row | Compound | melting point
1 | C#CCOc1ccc2nc(C(=O)c3ccc(C(C)(C)C)cc3)nc(-c3ccc(C(C)C)cc3)c2c1 [Example 1, (4-tert-Butyl-phenyl)-[4-(4-isopropyl-phenyl)-6-propargyloxy-quinazolin-2-yl]-methanone] | 166 to 168 °C
2 | C#CCOc1ccc2nc(C(=O)c3ccc(F)cc3)nc(-c3ccc(C(C)C)cc3)c2c1 [Example 6, (4-Fluoro-phenyl)-[4-(4-isopropyl-phenyl)-6-propargyloxy-quinazolin-2-yl]-methanone] | 124 to 126 °C
3 | C#CCOc1ccc2nc(C(=O)c3cccc(F)c3)nc(-c3ccc(C(C)C)cc3)c2c1 [Example 7, (3-Fluoro-phenyl)-[4-(4-isopropyl-phenyl)-6-propargyloxy-quinazolin-2-yl]-methanone] | 118 to 120 °C
4 | C#CCOc1ccc2nc(C(=O)c3cccc(Cl)c3)nc(-c3ccc(C(C)C)cc3)c2c1 [Example 8, (3-Chloro-phenyl)-[4-(4-isopropyl-phenyl)-6-propargyloxy-quinazolin-2-yl]-methanone] | 128 to 130 °C
5 | C#CCOc1ccc2nc(C(=O)c3ccc(Cl)cc3)nc(-c3ccc(C(C)C)cc3)c2c1 [Example 9, (4-Chloro-phenyl)-[4-(4-isopropyl-phenyl)-6-propargyloxy-quinazolin-2-yl]-methanone] | 108 to 110 °C
6 | C#CCOc1ccc2nc(C(=O)c3ccc(F)cc3)nc(-c3ccc(C(C)(C)C)cc3)c2c1 [Example 10, (4-Fluoro-phenyl)-[4-(4-tert.butyl-phenyl)-6-propargyloxy-quinazolin-2-yl]-methanone] | 105 to 107 °C
7 | C#CCOc1ccc2nc(C(=O)c3cccc(F)c3)nc(-c3ccc(C(C)(C)C)cc3)c2c1 [Example 11, (3-Fluoro-phenyl)-[4-(4-tert.butyl-phenyl)-6-propargyloxy-quinazolin-2-yl]-methanone] | 156 to 158 °C
8 | C#CCOc1ccc2nc(C(=O)c3cccc(Br)c3)nc(-c3ccc(C(C)C)cc3)c2c1 [Example 12, (3-Bromo-phenyl)-[4-(4-isopropyl-phenyl)-6-propargyloxy-quinazolin-2-yl]-methanone] | 132 °C
9 | C#CCOc1ccc2nc(C(=O)c3ccc(Br)cc3)nc(-c3ccc(C(C)C)cc3)c2c1 [Example 13, (4-Bromo-phenyl)-[4-(4-isopropyl-phenyl)-6-propargyloxy-quinazolin-2-yl]-methanone] | 97 to 100 °C
10 | C#CCOc1ccc2nc(C(=O)c3ccc(C)cc3)nc(-c3ccc(C(C)C)cc3)c2c1 [Example 14, (4-Methyl-phenyl)-[4-(4-isopropyl-phenyl)-6-propargyloxy-quinazolin-2-yl]-methanone] | 130 to 132 °C
11 | C#CCOc1ccc2nc(C(=O)c3ccc(C(C)C)cc3)nc(-c3ccc(C(C)C)cc3)c2c1 [Example 15, (4-Isopropyl-phenyl)-[4-(4-isopropyl-phenyl)-6-propargyloxy-quinazolin-2-yl]-methanone] | 132 to 134 °C
12 | C#CCOc1ccc2nc(C(=O)c3ccc(CC)cc3)nc(-c3ccc(C(C)C)cc3)c2c1 [Example 16, (4-Ethyl-phenyl)-[4-(4-isopropyl-phenyl)-6-propargyloxy-quinazolin-2-yl]-methanone] | 108 to 111 °C
13 | C#CCOc1ccc2nc(C(=O)c3ccc(CCC)cc3)nc(-c3ccc(C(C)C)cc3)c2c1 [Example 16a, (4-Propyl-phenyl)-[4-(4-isopropyl-phenyl)-6-propargyloxy-quinazolin-2-yl]-methanone] | 140 to 142 °C
14 | C#CCOc1ccc2nc(C(=O)c3ccc(C#N)cc3)nc(-c3ccc(C(C)C)cc3)c2c1 [Example 17, (4-Cyano-phenyl)-[4-(4-isopropyl-phenyl)-6-propargyloxy-quinazolin-2-yl]-methanone] | 130 to 132 °C
15 | C#CCOc1ccc2nc(C(=O)c3ccc(SC)cc3)nc(-c3ccc(C(C)C)cc3)c2c1 [Example 18, (4-Methylthio-phenyl)-[4-(4-isopropyl-phenyl)-6-propargyloxy-quinazolin-2-yl]-methanone] | 161 to 164 °C
16 | C#CCOc1ccc2nc(C(=O)c3ccc(S(C)(=O)=O)cc3)nc(-c3ccc(C(C)C)cc3)c2c1 [Example 19, (4-Methansulfonyl-phenyl)-[4-(4-isopropyl-phenyl)-6-propargyloxy-quinazolin-2-yl]-methanone] | 181 to 184 °C
17 | C#CCOc1ccc2nc(C(=O)c3ccc(N(C)C)cc3)nc(-c3ccc(C(C)C)cc3)c2c1 [Example 20, (4-Dimethylamino-phenyl)-[4-(4-isopropyl-phenyl)-6-propargyloxy-quinazolin-2-yl]-methanone] | 148 to 151 °C
18 | C#CCOc1ccc2nc(C(=O)c3ccc(OCC)cc3)nc(-c3ccc(C(C)C)cc3)c2c1 [Example 21, (4-Ethoxy-phenyl)-[4-(4-isopropyl-phenyl)-6-propargyloxy-quinazolin-2-yl]-methanone] | 117 to 119 °C

Row | Compound | melting point
19 | C#CCOc1ccc2nc(C(=O)c3ccc(C(=O)OC)cc3)nc(-c3ccc(C(C)C)cc3)c2c1 [Example 22, 4-[4-(4-Isopropyl-phenyl)-6-propargyloxy-quinazoline-2-carbonyl]-benzoic acid methyl ester] | 108 to 110 °C
20 | C#CCOc1ccc2nc(C(=O)c3ccc(N(C)C)cc3)nc(-c3ccc(C(C)(C)C)cc3)c2c1 [Example 23, (4-Dimethylamino-phenyl)-[4-(4-tert.butyl-phenyl)-6-propargyloxy-quinazolin-2-yl]-methanone] | 150 to 152 °C
21 | C#CCOc1ccc2nc(C(=O)c3ccc(N(C)C)cc3)nc(-c3ccc(C4CC4)cc3)c2c1 [Example 24, (4-Dimethylamino-phenyl)-[4-(4-cyclopropyl-phenyl)-6-propargyloxy-quinazolin-2-yl]-methanone] | 169 to 172 °C
22 | C#CCOc1ccc2nc(C(=O)c3ccc(C(=O)OCC)cc3)nc(-c3ccc(C(C)C)cc3)c2c1 [Example 25, 4-[4-(4-Isopropyl-phenyl)-6-propargyloxy-quinazoline-2-carbonyl]-benzoic acid ethyl ester] | 132 to 134 °C
23 | C#CCOc1ccc2nc(C(=O)c3ccc(OC)cc3)nc(-c3ccc(C(C)(C)C)cc3)c2c1 [Example 26, (4-Methoxy-phenyl)-[4-(4-tert.butyl-phenyl)-6-propargyloxy-quinazolin-2-yl]-methanone] | 150 to 152 °C
24 | C#CCOc1ccc2nc(C(=O)c3ccc(OC)cc3)nc(-c3ccc(C4CC4)cc3)c2c1 [Example 27] | 147 to 149 °C
25 | C#CCOc1ccc2nc(C(=O)c3ccc(OC)c(OCC)c3)nc(-c3ccc(C(C)C)cc3)c2c1 [Example 28, (3-Ethoxy-4-methoxy-phenyl)-[4-(4-isopropyl-phenyl)-6-propargyloxy-quinazolin-2-yl]-methanone] | 148 °C
26 | C#CCOc1ccc2nc(C(=O)c3ccc(OC(C)(C)C)cc3)nc(-c3ccc(C(C)C)cc3)c2c1 [Example 29, (4-tert.Butyloxy-phenyl)-[4-(4-isopropyl-phenyl)-6-propargyloxy-quinazolin-2-yl]-methanone] | 130 to 132 °C
27 | C#CCOc1ccc2nc(C(=O)c3ccc(O)cc3)nc(-c3ccc(C(C)C)cc3)c2c1 [Example 30, (4-Hydroxy)-[4-(4-isopropyl-phenyl)-6-propargyloxy-quinazolin-2-yl]-methanone] | 185 to 187 °C
28 | C#CCOc1ccc2nc(C(=O)c3ccc(OCCCC)cc3)nc(-c3ccc(C(C)C)cc3)c2c1 [Example 31, (4-Butyloxy)-[4-(4-isopropyl-phenyl)-6-propargyloxy-quinazolin-2-yl]-methanone] | 91 to 93 °C
29 | C#CCOc1ccc2nc(C(=O)c3ccco3)nc(-c3ccc(C(C)C)cc3)c2c1 [Example 32, Furan-2-yl-[4-(4-isopropyl-phenyl)-6-propargyloxy-quinazolin-2-yl]-methanone] | 150 to 151 °C
30 | C#CCOc1ccc2nc(C(=O)c3ccoc3)nc(-c3ccc(C(C)(C)C)cc3)c2c1 [Example 33, Furan-3-yl-[4-(4-tert.butyl-phenyl)-6-propargyloxy-quinazolin-2-yl]-methanone] | 170 °C
31 | C#CCOc1ccc2nc(C(=O)c3ccoc3)nc(-c3ccc(C(C)C)cc3)c2c1 [Example 34, Furan-3-yl-[4-(4-isopropyl-phenyl)-6-propargyloxy-quinazolin-2-yl]-methanone] | 133 °C
32 | C#CCOc1ccc2nc(C(=O)c3cccs3)nc(-c3ccc(C(C)C)cc3)c2c1 [Example 35, Thiophen-2-yl-[4-(4-isopropyl-phenyl)-6-propargyloxy-quinazolin-2-yl]-methanone] | 113 to 117 °C
33 | C#CCOc1ccc2nc(C(=O)c3sccc3C)nc(-c3ccc(C(C)C)cc3)c2c1 [Example 36] | 130 to 132 °C
34 | C#CCOc1ccc2nc(C(=O)c3cc4ccccc4s3)nc(-c3ccc(C(C)C)cc3)c2c1 [Example 37, Benz[b]thiophen-2-yl-[4-(4-isopropyl-phenyl)-6-propargyloxy-quinazolin-2-yl]-methanone] | 167 to 169 °C
35 | C#CCOc1ccc2nc(C(=O)c3cccn3C)nc(-c3ccc(C(C)C)cc3)c2c1 [Example 39, (1-Methyl-1H-pyrrol)-2-yl-[4-(4-isopropyl-phenyl)-6-propargyloxy-quinazolin-2-yl]-methanone] | 126 to 128 °C
